Test results from ChEMBL document CHEMBL3616475 (Bioorg Med Chem, 2015).
Calls of active or inactive are those of the source. The calls are words filed in the database; no cut-off is given here.

Biological target: T1, Adenosine receptor A1 (Rattus norvegicus, UniProt P25099)
T1 sequence (P25099 whole entry): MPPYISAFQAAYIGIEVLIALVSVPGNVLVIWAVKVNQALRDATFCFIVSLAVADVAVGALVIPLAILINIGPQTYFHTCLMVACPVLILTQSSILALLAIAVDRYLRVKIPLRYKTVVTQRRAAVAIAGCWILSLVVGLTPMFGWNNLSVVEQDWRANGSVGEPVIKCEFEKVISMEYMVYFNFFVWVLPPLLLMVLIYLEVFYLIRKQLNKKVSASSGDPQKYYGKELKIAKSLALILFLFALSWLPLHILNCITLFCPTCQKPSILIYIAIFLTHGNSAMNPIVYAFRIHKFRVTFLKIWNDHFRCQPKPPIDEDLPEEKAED
Assay: not given

| Ki | SMILES |
| --- | --- |
| 0.543 µM | CCn1c(=O)c2c(nc(CCc3ccccc3)n2CC)n(CC)c1=O |
| 0.356 µM | CCn1c(=O)c2c(nc(COc3ccccc3)n2CC)n(CC)c1=O |
| 0.139 µM | CCn1c(=O)c2c(nc(CCCc3ccccc3)n2CC)n(CC)c1=O |

Test system: Rattus norvegicus
Assay: Inhibition of CPA-induced hypolocomotion in Sprague-Dawley rat at 0.03 to 0.1 mg/kg, ip administered 25 mins prior to CPA addition measured for 20 mins starting from 5 mins post habituation
Format: functional, organism-based

| SMILES | inhibition |
| --- | --- |
| CCCn1c(=O)c2[nH]c(C3CCCC3)nc2n(CCC)c1=O | Active |

Species on record: Rattus norvegicus
Assay: Selectivity ratio of Ki for Adenosine A2A receptor in Sprague-Dawley rat striatal membranes to Ki for Adenosine A1 receptor in Sprague-Dawley rat whole brain membranes

| Ratio Ki | SMILES |
| --- | --- |
| 3 | CCn1c(=O)c2c(nc(CCCc3ccccc3)n2C)n(CC)c1=O |
| 8 | CCn1c(=O)c2c(nc(CCc3ccccc3)n2CC)n(CC)c1=O |
| 6 | CCn1c(=O)c2c(nc(COc3ccccc3)n2CC)n(CC)c1=O |
| 17 | CCn1c(=O)c2c(nc(CCCc3ccccc3)n2CC)n(CC)c1=O |
| 2 | CCn1c(COc2ccccc2)nc2c1c(=O)n(C)c(=O)n2C |
| 0.86 | Cn1c(=O)c2c(nc(CCc3ccccc3)n2C)n(C)c1=O |
| 0.77 | Cn1c(=O)c2c(nc(COc3ccccc3)n2C)n(C)c1=O |
| 2 | CCn1c(=O)c2c(nc(COc3ccccc3)n2C)n(CC)c1=O |
| 3 | CCn1c(CCc2ccccc2)nc2c1c(=O)n(C)c(=O)n2C |
| 19 | CCn1c(CCCc2ccccc2)nc2c1c(=O)n(C)c(=O)n2C |
| 3 | CCn1c(=O)c2c(nc(CCc3ccccc3)n2C)n(CC)c1=O |
| 4 | Cn1c(=O)c2c(nc(CCCc3ccccc3)n2C)n(C)c1=O |

Biological target: T1, Adenosine receptor A1
Assay: not given
Remark: another data set of the same source

| Ki | SMILES |
| --- | --- |
| 0.636 µM | CCn1c(=O)c2c(nc(CCc3ccccc3)n2CC)n(CC)c1=O |
| 0.416 µM | CCn1c(=O)c2c(nc(COc3ccccc3)n2CC)n(CC)c1=O |
| 0.164 µM | CCn1c(=O)c2c(nc(CCCc3ccccc3)n2CC)n(CC)c1=O |

Biological target: T1, Adenosine receptor A1
Assay: not given
Remark: another data set of the same source

| Ki | SMILES |
| --- | --- |
| 0.681 µM | CCn1c(=O)c2c(nc(CCc3ccccc3)n2CC)n(CC)c1=O |
| 0.368 µM | CCn1c(=O)c2c(nc(COc3ccccc3)n2CC)n(CC)c1=O |
| 0.258 µM | CCn1c(=O)c2c(nc(CCCc3ccccc3)n2CC)n(CC)c1=O |

Biological target: T1, Adenosine receptor A1
Assay: not given
Remark: another data set of the same source

| Ki | SMILES |
| --- | --- |
| 0.763 µM | CCn1c(=O)c2c(nc(CCc3ccccc3)n2CC)n(CC)c1=O |
| 0.397 µM | CCn1c(=O)c2c(nc(COc3ccccc3)n2CC)n(CC)c1=O |
| 0.209 µM | CCn1c(=O)c2c(nc(CCCc3ccccc3)n2CC)n(CC)c1=O |

Biological target: T2, Adenosine receptor A2a (Rattus norvegicus, UniProt P30543)
T2 sequence (P30543 whole entry): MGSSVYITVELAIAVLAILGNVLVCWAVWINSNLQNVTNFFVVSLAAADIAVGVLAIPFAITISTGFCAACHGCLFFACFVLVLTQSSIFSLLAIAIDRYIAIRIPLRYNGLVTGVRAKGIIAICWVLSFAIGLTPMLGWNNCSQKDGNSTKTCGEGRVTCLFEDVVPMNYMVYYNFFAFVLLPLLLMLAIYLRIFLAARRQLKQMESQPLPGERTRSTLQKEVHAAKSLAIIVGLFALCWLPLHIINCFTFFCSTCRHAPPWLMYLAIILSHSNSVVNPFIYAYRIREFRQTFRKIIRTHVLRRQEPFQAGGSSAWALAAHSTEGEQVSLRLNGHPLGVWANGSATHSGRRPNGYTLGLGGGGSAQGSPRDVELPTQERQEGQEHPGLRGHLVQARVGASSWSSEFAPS
Assay: Binding affinity to Adenosine A2A receptor in rat brain tissue by radioligand displacement assay
Format: tissue-based

| Ki | SMILES |
| --- | --- |
| 27 µM | Cn1c(=O)c2c(nc(-c3ccccc3)n2C)n(C)c1=O |

Biological target: T1, Adenosine receptor A1
Assay: Displacement of [3H]-DPCPX from Adenosine A1 receptor in Sprague-Dawley rat whole brain membranes
Set-up: species or system Membrane

| Ki | SMILES |
| --- | --- |
| 1.24 µM | CCn1c(=O)c2c(nc(CCCc3ccccc3)n2C)n(CC)c1=O |
| 0.636 µM | CCn1c(=O)c2c(nc(CCc3ccccc3)n2CC)n(CC)c1=O |
| 0.416 µM | CCn1c(=O)c2c(nc(COc3ccccc3)n2CC)n(CC)c1=O |
| 0.164 µM | CCn1c(=O)c2c(nc(CCCc3ccccc3)n2CC)n(CC)c1=O |
| 1.1 µM | CCn1c(COc2ccccc2)nc2c1c(=O)n(C)c(=O)n2C |
| 5.74 µM | Cn1c(=O)c2c(nc(CCc3ccccc3)n2C)n(C)c1=O |
| 3.09 µM | Cn1c(=O)c2c(nc(COc3ccccc3)n2C)n(C)c1=O |
| 0.874 µM | CCn1c(=O)c2c(nc(COc3ccccc3)n2C)n(CC)c1=O |
| 1.09 µM | CCn1c(CCc2ccccc2)nc2c1c(=O)n(C)c(=O)n2C |
| 0.259 µM | CCn1c(CCCc2ccccc2)nc2c1c(=O)n(C)c(=O)n2C |
| 0.816 µM | CCn1c(=O)c2c(nc(CCc3ccccc3)n2C)n(CC)c1=O |
| 1.55 µM | Cn1c(=O)c2c(nc(CCCc3ccccc3)n2C)n(C)c1=O |

Biological target: T2, Adenosine receptor A2a
Assay: Displacement of [3H]-NECA from Adenosine A2A receptor in Sprague-Dawley rat striatal membranes
Set-up: species or system Striatum, Membrane

| Ki | SMILES |
| --- | --- |
| 3.93 µM | CCn1c(=O)c2c(nc(CCCc3ccccc3)n2C)n(CC)c1=O |
| 4.97 µM | CCn1c(=O)c2c(nc(CCc3ccccc3)n2CC)n(CC)c1=O |
| 2.64 µM | CCn1c(=O)c2c(nc(COc3ccccc3)n2CC)n(CC)c1=O |
| 2.71 µM | CCn1c(=O)c2c(nc(CCCc3ccccc3)n2CC)n(CC)c1=O |
| 2.25 µM | CCn1c(COc2ccccc2)nc2c1c(=O)n(C)c(=O)n2C |
| 4.95 µM | Cn1c(=O)c2c(nc(CCc3ccccc3)n2C)n(C)c1=O |
| 2.37 µM | Cn1c(=O)c2c(nc(COc3ccccc3)n2C)n(C)c1=O |
| 1.91 µM | CCn1c(=O)c2c(nc(COc3ccccc3)n2C)n(CC)c1=O |
| 0.331 µM | OC[C@H]1O[C@@H](n2cnc3c(NC4CCCC4)ncnc32)[C@H](O)[C@@H]1O [N6-CYCLOPENTYLADENOSINE] |
| 3.11 µM | CCn1c(CCc2ccccc2)nc2c1c(=O)n(C)c(=O)n2C |
| 4.93 µM | CCn1c(CCCc2ccccc2)nc2c1c(=O)n(C)c(=O)n2C |
| 2.36 µM | CCn1c(=O)c2c(nc(CCc3ccccc3)n2C)n(CC)c1=O |
| 6.8 µM | Cn1c(=O)c2c(nc(CCCc3ccccc3)n2C)n(C)c1=O |

Test system: Rattus norvegicus
Assay: Inhibition of CPA-induced hypolocomotion in Sprague-Dawley rat at 0.06 to […], ip administered 25 mins prior to CPA addition measured for 20 mins starting from 5 mins post habituation

| SMILES | inhibition |
| --- | --- |
| CCn1c(=O)c2c(nc(CCCc3ccccc3)n2CC)n(CC)c1=O | Active |
